Source: article PMC3165067 (Journal of medicinal chemistry, 2011)

Columns and labels:
[1] = molecular target: T1, Antithrombin inhibition of factor Xa (Homo sapiens, UniProt P01008); assay: Kinetics of antithrombin inhibition of factor Xa in presence of activators; assay type: biochemical; settings: for kACT (second-order rate constant of fXa inhibition by AT–activator complex): pH 6.0, 25 mM NaCl, 25 °C, error ±1 S.E.
[2] = molecular target: T1, Antithrombin inhibition of factor Xa; settings: ref [32], cited from earlier work

T1 sequence (P01008 33-464): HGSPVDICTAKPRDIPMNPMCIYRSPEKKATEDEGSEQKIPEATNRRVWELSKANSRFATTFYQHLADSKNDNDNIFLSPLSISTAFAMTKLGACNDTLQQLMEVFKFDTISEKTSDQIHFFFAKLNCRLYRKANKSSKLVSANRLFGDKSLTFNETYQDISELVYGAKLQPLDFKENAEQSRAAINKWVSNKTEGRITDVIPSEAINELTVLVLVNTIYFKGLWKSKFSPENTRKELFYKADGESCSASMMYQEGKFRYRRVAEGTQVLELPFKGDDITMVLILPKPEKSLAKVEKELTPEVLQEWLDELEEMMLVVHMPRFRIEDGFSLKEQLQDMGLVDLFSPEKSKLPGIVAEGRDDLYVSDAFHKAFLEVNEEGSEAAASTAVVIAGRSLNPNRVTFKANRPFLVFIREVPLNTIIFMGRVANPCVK

Row | Structure (SMILES) | kACT (second-order rate constant of fXa inhibition by AT–activator complex) [1] [M⁻¹ s⁻¹] | other results
1 | O=C(CCCc1cc(OS(=O)(=O)[O-])ccc1OS(=O)(=O)[O-])N1CCc2c(ccc(OS(=O)(=O)[O-])c2OS(=O)(=O)[O-])C1.[Na+].[Na+].[Na+].[Na+] [compound 8, 1-(5,6-di-O-sulfonato-3,4-dihydroisoquinolin-2(1H)-yl)-4-(2,5-di-O-sulfonato-phenyl)butan-1-one tetrasodium] | 3337 ± 265 | 
2 | O=C(Cc1cc(OS(=O)(=O)[O-])ccc1OS(=O)(=O)[O-])N1CCc2cc(OS(=O)(=O)[O-])c(OS(=O)(=O)[O-])cc2C1.[Na+].[Na+].[Na+].[Na+] [compound 7, 1-(6,7-di-O-sulfonato-3,4-dihydroisoquinolin-2(1H)-yl)-2-(2,5-di-O-sulfonato-phenyl) ethanone tetrasodium] | 4582 ± 597 | 
3 | O=S(=O)([O-])Oc1cc2c(c(OS(=O)(=O)[O-])c1)C[C@@H](OS(=O)(=O)[O-])[C@@H](c1ccc(OS(=O)(=O)[O-])c(OS(=O)(=O)[O-])c1)O2.[Na+].[Na+].[Na+].[Na+].[Na+] [ECS] |  | kUNCAT ([2]; 20 mM sodium phosphate buffer, pH 6.0, 0.1 mM EDTA, 0.1% PEG8000): ~120 M⁻¹ s⁻¹; kACT ([2]; pH 6.0, no added NaCl): 909 ± 40 M⁻¹ s⁻¹

Further lines, with some results ahead:

Row | kACT (second-order rate constant of fXa inhibition by AT–activator complex) [1] [M⁻¹ s⁻¹] | Structure (SMILES) | other results
4 | 46330 ± 2830 | O=C([O-])C1Cc2c(OS(=O)(=O)[O-])ccc(OS(=O)(=O)[O-])c2CN1C(=O)CCCc1cc(OS(=O)(=O)[O-])ccc1OS(=O)(=O)[O-].[Na+].[Na+].[Na+].[Na+].[Na+] (centres unmarked) [20c, Sodium 2-(4-(2,5-di-O-sulfonato-phenyl)butanoyl)-5,8-di-O-sulfonato-1,2,3,4-tetrahydro isoquinoline-3-carboxylate tetrasodium] | AT activation, fold less than that achieved with DEFGH ([1]; 79-fold versus 300-fold for DEFGH): 3.8 fold
5 | 32630 ± 1644 | O=C([O-])C1Cc2c(OS(=O)(=O)[O-])ccc(OS(=O)(=O)[O-])c2CN1C(=O)Cc1cc(OS(=O)(=O)[O-])ccc1OS(=O)(=O)[O-].[Na+].[Na+].[Na+].[Na+].[Na+] (centres unmarked) [20a, Sodium 2-(2-(2,5-di-O-sulfonato-phenyl)acetyl)-5,8-di-O-sulfonato-1,2,3,4-tetrahydroisoquinoline-3-carboxylate tetrasodium] | 
6 | 8051 ± 751 | O=C([O-])C1Cc2cc(OS(=O)(=O)[O-])c(OS(=O)(=O)[O-])cc2CN1C(=O)CCc1cc(OS(=O)(=O)[O-])ccc1OS(=O)(=O)[O-].[Na+].[Na+].[Na+].[Na+].[Na+] (centres unmarked) [19b, Sodium 2-(3-(2,5-di-O-sulfonato-phenyl)propanoyl)-6,7-di-O-sulfonato-1,2,3,4-tetrahydroisoquinoline-3-carboxylate tetrasodium] | 
7 | 9640 ± 748 | O=C([O-])C1Cc2cc(OS(=O)(=O)[O-])c(OS(=O)(=O)[O-])cc2CN1C(=O)CCCc1cc(OS(=O)(=O)[O-])ccc1OS(=O)(=O)[O-].[Na+].[Na+].[Na+].[Na+].[Na+] (centres unmarked) [19c, Sodium 2-(4-(2,5-di-O-sulfonato-phenyl)butanoyl)-6,7-di-O-sulfonato-1,2,3,4-tetrahydroisoquinoline-3-carboxylate tetrasodium] | 
8 | 19740 ± 1290 | O=C([O-])C1Cc2cc(OS(=O)(=O)[O-])c(OS(=O)(=O)[O-])cc2CN1C(=O)Cc1cc(OS(=O)(=O)[O-])ccc1OS(=O)(=O)[O-].[Na+].[Na+].[Na+].[Na+].[Na+] (centres unmarked) [19a, Sodium 2-(2-(2,5-di-O-sulfonato-phenyl)acetyl)-6,7-di-O-sulfonato-1,2,3,4-tetrahydroisoquinoline-3-carboxylate tetrasodium] | 
9 | 11800 ± 789 | O=C([O-])C1Cc2c(OS(=O)(=O)[O-])ccc(OS(=O)(=O)[O-])c2CN1C(=O)CCc1cc(OS(=O)(=O)[O-])ccc1OS(=O)(=O)[O-].[Na+].[Na+].[Na+].[Na+].[Na+] (centres unmarked) [20b, Sodium 2-(3-(2,5-di-O-sulfonato-phenyl)propanoyl)-5,8-di-O-sulfonato-1,2,3,4-tetrahydroisoquinoline-3-carboxylate tetrasodium] | 
